Results on 17 molecules are retold here after paper PMC8620390, “New Multi-Targeted Antiproliferative Agents: Design and Synthesis of IC261-Based Oxindoles as Potential Tubulin, CK1 and EGFR Inhibitors” (Pharmaceuticals, 2021).

One assay concerns COLO-205. Put plainly: Two-dose antiproliferative screening, SRB assay, COLO-205. In kind it is cell-based, human. Particulars: triplicates; for inhibition at 1 µM / inhibition at 10 µM: Homo sapiens, COLO 205, 72 h; for inhibition at 1 µM: read-out: Growth Inhibition (%) COLO-205 1 μM Average; for inhibition at 10 µM: read-out: Growth Inhibition (%) COLO-205 10 μM Average. As to the method: (§1) MCF-7(breast adenocarcinoma), PC-3 (prostate cancer) and COLO-205 (colorectal cancer) were obtained from Nawah Scientific inc., (Mokatam, Cairo, Egypt). Cells were maintained in Dulbecco’s Modified Eagle’s media (DMEM media) supplemented with […] of streptomycin, 100 units/mL of penicillin and 10% of heat-inactivated fetal bovine serum in humidified, 5% (v/v) CO2 atmosphere at 37 °C.
(§2) Cell viability was assessed by the sulforhodamine B (SRB) assay. Aliquots of cell suspension (5 × 10^3 cells, 100 μL) were transferred into 96 well plates and incubated in complete media for 24 h. Cells were treated with another aliquot media (100 μL) containing compounds 3a–f, 4a–f, 6a–f, 7a–f, 9a–b at concentrations of 1 and 10 μM). After 72 h of drug exposure, cells were fixed by replacing media with trichloroacetic acid (TCA, 10%, 150 μL) and incubated at 4 °C for 1 h. The TCA solution was removed, and the cells were washed five times with distilled water. Aliquots of SRB solution (0.4%w/v, 70 μL) were added and incubated in a dark place at room temperature for 10 min. Plates were washed three times with 1% acetic acid and allowed to air dry overnight. Then, a solution of TRIS base and TRIS HCl (TRIS buffer, 10 mM, 150 μL) was added to dissolve protein bound SRB stain. The absorbance was measured at 540 nm using BMGLABTECH®–FLUOstar omega micro-plate reader (Ortenberg, Germany).
(In SRB staining, fixed cells bind dye roughly in proportion to their protein.)

Another assay deals with PC-3. Put plainly: Two-dose antiproliferative screening, SRB assay, PC-3. Particulars: triplicates; for inhibition at 1 µM / inhibition at 10 µM: Homo sapiens, PC-3, 72 h; for inhibition at 1 µM: read-out: Growth Inhibition (%) PC-3 1 μM Average; for inhibition at 10 µM: read-out: Growth Inhibition (%) PC-3 10 μM Average; for Growth Inhibition (%) PC-3 10 μM Average: 72 h. In kind it is cell-based. As to the method: as §1, §2

The subject of a further assay is MCF-7. Put plainly: Two-dose antiproliferative screening, SRB assay, MCF-7. Type of assay: cell-based. Particulars: Homo sapiens, MCF7, 72 h, triplicates; for inhibition at 1 µM: read-out: Growth Inhibition (%) MCF-7 1 μM Average; for inhibition at 10 µM: read-out: Growth Inhibition (%) MCF-7 10 μM Average. As to the method: as §1, §2

SMILES strings stand for the structures.

The inhibition is the share of the control response that was lost under treatment. Consider `COc1cc(/C=C2/C(=O)Nc3ccccc32)cc(OC)c1OC` [Compound 3a, (E)-3-(3,4,5-trimethoxybenzylidene)indolin-2-one], for which the inhibition at 1 µM in the assay with COLO-205 stood at 1.18%; in the assay on PC-3, 1.92%; in the assay on MCF-7 it was 1.17%. Further, the inhibition at 10 µM in the assay with COLO-205 (10 μM) is 4.71%; with PC-3 it was 20.4%; in the assay on MCF-7 it was 3.44%.
For `COc1cc(/C=C2/C(=O)Nc3cc(Cl)ccc32)cc(OC)c1OC` [Compound 3b, (E)-6-chloro-3-(3,4,5-trimethoxybenzylidene)indolin-2-one], the inhibition at 1 µM worked out at 5.7% in the assay on COLO-205, 7.69% with PC-3 and 1.14% in the assay with MCF-7. In addition, the inhibition at 10 µM with COLO-205 (10 μM) was found to be 32.6%; with PC-3, 39%; in the assay with MCF-7, 41.2%.
As for `COc1cc(/C=C2/C(=O)Nc3ccc(Cl)cc32)cc(OC)c1OC` [Compound 3c, (E)-5-chloro-3-(3,4,5-trimethoxybenzylidene)indolin-2-one], the inhibition at 1 µM in the assay on COLO-205 came to 2.86%; in the assay with PC-3 it was 1.42%; in the assay on MCF-7 it was 1.06%. The figures for the inhibition at 10 µM in the assay on COLO-205 (10 μM), in the assay with PC-3 and in the assay with MCF-7 were 6.41%, 14.3% and 8.56%, respectively.
In the case of `COc1cc(/C=C2/C(=O)Nc3ccc(F)cc32)cc(OC)c1OC` [Compound 3d, (E)-5-fluoro-3-(3,4,5-trimethoxybenzylidene)indolin-2-one], the results for the inhibition at 1 µM in the assay on COLO-205, with PC-3 and with MCF-7 were 7.01%, 2.02% and 0.98%, respectively. Moreover, the values for the inhibition at 10 µM in the assay on COLO-205 (10 μM), with PC-3 and in the assay with MCF-7 were 11.8%, 1.91% and 3.6%, respectively.
On to `COc1ccc2c(c1)/C(=C\c1cc(OC)c(OC)c(OC)c1)C(=O)N2` [Compound 3e, (E)-5-methoxy-3-(3,4,5-trimethoxybenzylidene)indolin-2-one], for which the values for the inhibition at 1 µM with COLO-205, in the assay on PC-3 and in the assay on MCF-7 were 2.34%, 32.9% and 21%, respectively. The values for the inhibition at 10 µM in the assay on COLO-205 (10 μM), in the assay on PC-3 and in the assay with MCF-7 were 18.6%, 52 to 72% and 65.3%, respectively. In the assay on PC-3, the “Growth Inhibition (%) PC-3 10 μM Average” value was 61.38%.
For the molecule `COc1cc(/C=C2/C(=O)Nc3ncccc32)cc(OC)c1OC` [Compound 3f, (E)-3-(3,4,5-trimethoxybenzylidene)-1,3-dihydro-2H-pyrrolo[2,3-b] pyridin-2-one], the inhibition at 1 µM amounted to 1.52% with COLO-205, 1.29% with PC-3 and 0.36% in the assay with MCF-7. Further, the results for the inhibition at 10 µM in the assay on COLO-205 (10 μM), with PC-3 and in the assay on MCF-7 were 9.13%, 3.57% and 4.53%, respectively.
For `COc1cc(OC)c(/C=C2/C(=O)Nc3ncccc32)c(OC)c1` [Compound 4f, (E)-3-(2,4,6-trimethoxybenzylidene)-1,3-dihydro-2H-pyrrolo[2,3-b] pyridin-2-one], the inhibition at 1 µM in the assay with COLO-205 stood at 7.64%; in the assay on PC-3 it was 23%; in the assay with MCF-7, 11.5%. Also, the values for the inhibition at 10 µM in the assay with COLO-205 (10 μM), in the assay on PC-3 and in the assay on MCF-7 were 63.8%, 69.1% and 65.8%, respectively.
On to `COc1cc(/C=C2/C(=O)N(Cc3ccccc3)c3ccccc32)cc(OC)c1OC` [Compound 6a, (E)-1-Benzyl-3-(3,4,5-trimethoxybenzylidene)indolin-2-one], for which the inhibition at 1 µM with COLO-205 stood at 2.46%; with PC-3, 4.3%; in the assay on MCF-7, 1.74%. Moreover, the inhibition at 10 µM was 4.97% in the assay on COLO-205 (10 μM), 5.03% in the assay on PC-3 and 48.5% in the assay with MCF-7.
For `COc1cc(/C=C2/C(=O)N(Cc3ccc(Cl)cc3)c3ccccc32)cc(OC)c1OC` [Compound 6b, (E)-1-(4-Chlorobenzyl)-3-(3,4,5-trimethoxybenzylidene)indolin-2-one], the inhibition at 1 µM in the assay with COLO-205 came out at 3.9%; in the assay with PC-3, 1.04%; in the assay with MCF-7, 1.13%. Also, the inhibition at 10 µM in the assay with COLO-205 (10 μM) was found to be 45.8%; in the assay with PC-3, 28.9%; in the assay with MCF-7, 32.2%.
`COc1cc(/C=C2/C(=O)N(Cc3ccc(F)cc3)c3ccccc32)cc(OC)c1OC` [Compound 6c, (E)-1-(4-Fluorobenzyl)-3-(3,4,5-trimethoxybenzylidene)indolin-2-one]: the results for the inhibition at 1 µM in the assay on COLO-205, with PC-3 and in the assay with MCF-7 were 4.66%, 0.69% and 5.68%, respectively. In addition, the figures for the inhibition at 10 µM in the assay with COLO-205 (10 μM), in the assay on PC-3 and in the assay with MCF-7 were 13.6%, 8.22% and 25%, respectively.
Take `COc1cc(/C=C2/C(=O)N(Cc3ccccc3)c3cc(Cl)ccc32)cc(OC)c1OC` [Compound 6d, (E)-1-benzyl-6-chloro-3-(3,4,5-trimethoxybenzylidene)indolin-2-one]: the figures for the inhibition at 1 µM in the assay with COLO-205, in the assay on PC-3 and in the assay with MCF-7 were 2.38%, 4.24% and 0.68%, respectively. Besides, the figures for the inhibition at 10 µM in the assay with COLO-205 (10 μM), in the assay on PC-3 and in the assay with MCF-7 were 8.68%, 7.34% and 48.4%, respectively.
As for `COc1cc(OC)c(/C=C2/C(=O)N(Cc3ccccc3)c3ccccc32)c(OC)c1` [Compound 7a, (E)-1-benzyl-3-(2,4,6-trimethoxybenzylidene)indolin-2-one], the inhibition at 1 µM in the assay on COLO-205 turned out to be 11.9%; with PC-3 it was 0.65%; in the assay with MCF-7, 0.6%. The inhibition at 10 µM in the assay with COLO-205 (10 μM) worked out at 20%; in the assay on PC-3 it was 8.59%; with MCF-7 it was 15.3%.
Regarding `COc1cc(OC)c(/C=C2/C(=O)N(Cc3ccc(Cl)cc3)c3ccccc32)c(OC)c1` [Compound 7b, (E)-1-(4-chlorobenzyl)-3-(2,4,6-trimethoxybenzylidene)indolin-2-one], the results for the inhibition at 1 µM in the assay on COLO-205, in the assay with PC-3 and in the assay on MCF-7 were 3%, 1.05% and 3.81%, respectively. Also, the inhibition at 10 µM in the assay on COLO-205 (10 μM) stood at 3.33%; with PC-3 it was 3.15%; in the assay with MCF-7, 5.48%.
For `COc1cc(OC)c(/C=C2/C(=O)N(Cc3ccc(F)cc3)c3ccccc32)c(OC)c1` [Compound 7c, (E)-1-(4-fluorobenzyl)-3-(2,4,6-trimethoxybenzylidene)indolin-2-one], the inhibition at 1 µM in the assay with COLO-205 turned out to be 4.66%; in the assay on PC-3, 0.89%; in the assay with MCF-7 it was 4.08%. Moreover, the inhibition at 10 µM in the assay on COLO-205 (10 μM) came out at 18.3%; with PC-3, 13.8%; in the assay with MCF-7 it was 25.9%.
For `COc1cc(OC)c(/C=C2/C(=O)N(Cc3ccccc3)c3cc(Cl)ccc32)c(OC)c1` [Compound 7d, (E)-1-benzyl-6-chloro-3-(2,4,6-trimethoxybenzylidene)indolin-2-one], the inhibition at 1 µM with COLO-205 came out at 2.38%; with PC-3, 1.47%; in the assay on MCF-7, 0.49%. For the same molecule, the values for the inhibition at 10 µM with COLO-205 (10 μM), in the assay on PC-3 and in the assay on MCF-7 were 15.6%, 19.9% and 40.5%, respectively.
Take `COc1cc(OC)c(/C=C2/C(=O)N(Cc3ccc(Cl)cc3)c3cc(Cl)ccc32)c(OC)c1` [Compound 7e, (E)-6-chloro-1-(4-chlorobenzyl)-3-(2,4,6-trimethoxybenzylidene) indolin-2-one]: the inhibition at 1 µM came out at 3.82% with COLO-205, 1.77% in the assay with PC-3 and 1.59% with MCF-7. For the same molecule, the inhibition at 10 µM was 22.1% in the assay with COLO-205 (10 μM), 52 to 72% in the assay with PC-3 and 46.2% in the assay with MCF-7. Moreover, the “Growth Inhibition (%) PC-3 10 μM Average” value in the assay with PC-3 is reported as 51.68%.
With `COc1cc(OC)c(/C=C2/C(=O)N(Cc3ccc(F)cc3)c3cc(Cl)ccc32)c(OC)c1` [Compound 7f, (E)-6-chloro-1-(4-fluorobenzyl)-3-(2,4,6-trimethoxybenzylidene) indolin-2-one], in the assay with COLO-205 (10 μM, 72 h), the “Growth Inhibition (%) COLO-205 10 μM Average” value is 3.97%. Also, the inhibition at 1 µM in the assay on COLO-205 was found to be 3.33%; in the assay with PC-3, 0.75%; in the assay on MCF-7 it was 10.3%. In addition, the inhibition at 10 µM was found to be 7.08% with PC-3 and 16% with MCF-7.
